In brackets after ≈: the same amount, converted by molar mass.
What was measured:
[1] = test system: Staphylococcus aureus ATCC 43300 MRSA; experiment: Forced evolution of resistance, 20 days serial passage and drug-free passages; type: cell-based; details: for MIC: Staphylococcus aureus
Protocol: The collaborator supplied sample as dry material. A stock solution at 10 mg/mL in neat DMSO was prepared.
The mid log Staphylococcus aureus (ATCC 43300) growth culture was serially diluted and plated on a solid Tryptic Soy Agar (TSA) plates in duplicates and incubated at 37° C. overnight to determine viable colony count.
Staphylococcus aureus (ATCC 43300) was cultured in CaMHB at 37° C. overnight, then diluted 40-fold and incubated at 37° C. for a further 2-3 h. […] The plate was covered and incubated at 37° C. for 20 h.
Plate well with the highest drug concentration that permitted growth was then diluted. Despite plates were read by eye, reading at OD600 on the Epoch microplate spectrophotometer was used to adjust growth density of each well (it was approximately 1:1000). Then, 100 μL of the bacteria diluted was added to the new MIC plate. The OD600 was used to calculate the dilution of cells to a density of 10^6 CFU/mL. Bacteria were diluted in CaMHB and 100 μL was added to each well of the next replicate passage. The final well volume was 200 μL with a cell density of 5×10^5 CFU/mL. Each replicate (row) was assess as different strain, for this reason the dilution was done for each replicate.
Once prepared, the plate was covered and incubated at 37° C. overnight. Plate reading, compound preparation and bacterial preparation were repeated from Day 2 to Day 20.
Depending on the MIC of the day before, CBD tested concentrations were established.
Depending on the MIC of the day before, CBD and daptomycin tested concentrations were established to ensure at least three concentrations above, and three concentrations below MIC, based on the previous MIC results. Compounds were prepared in Protein LoBind Eppendorf 1.5 mL safelock tubes, diluting 320 μg/mL stock in DMSO in CaMHB to achieve two-fold the desired testing concentrations. The 100 μL of the selected concentration were added to each well (See FIG. 1). […] It was incubated at 37° C. overnight. Next day the same procedure was repeated.
Following 20 days of passaging in the presence of CBD and daptomycin, each replicate was passaged for 4 days in drug-free media to assess the stability of any induced resistance.
Day 20 plate was read and the same bacterial preparation methodology was followed. Same concentrations used in day 20 for CBD were used for the 4 days drug free passages. […] These concentrations were used for the 4 days drug free passages. Column 11 was used as the drug-free passage well, and column 12 as a negative growth control with 200 μL uninoculated media in each well. Diluted bacteria were added to the plate, one replicate per row, 100 μL per well. The final well volume was 200 μL with a cell density of 5×10^5 CFU/mL in columns 1-11, and CBD concentration range from 16-0.03 μg/mL in columns 1-10 (FIG. 2).
Subsequent drug-free passage plates were prepared in the same manner, except each replicate bacteria was passaged from column 11, the drug-free growth control well.
Alongside the test plate, a culture of S. aureus was passaged for 24 days without CBD, to establish a baseline for non-selective mutations in the growth conditions described.
Six wells were used as a positive growth controls, and six as negative growth controls with uninoculated media.
Subsequent passages were inoculated from well H7. The bacterial growth in H7 was resuspended by pipetting, then plates were read for optical density by spectrophotometer (Biotek Epoch) at 600 nm (OD600). The OD600 was used to calculate the dilution of cells to a density of 10^6 CFU/mL. Bacteria were diluted in CaMHB and 50 μL was added to each well of the next passage.

[2] = test system: Staphylococcus aureus ATCC 43300 MRSA; experiment: Antibacterial time kill assay; type: cell-based; details: for MIC: Staphylococcus aureus
Protocol: The time-kill method is based on CLSI guideline M26-A (NCCLS, 1999).
The collaborator supplied sample as dry material. A stock solution was prepared at 10 mg/mL in neat DMSO (11.2 mg in 1.12 mL of DMSO). The highest concentration tested in the assay was 64 μg/mL and 2% DMSO as a final concentration using 1/20 dilution to achieve these concentrations.
Time kill plates: CBD was plate across all the rows and serially diluted in Cation-adjusted Mueller Hinton Broth (CaMHB; BD, Cat. No. 212322) two-fold across the wells of polystyrene (PS) 96-well plates (Corning; Cat. No. 3370), plated in duplicate. Each row were taken as a time point, where row A, 0 h; row B, 1 h; row C, 2 h; row D, 3 h; row E, 4 h; row F, 6 h and row G, 24 h.
Also, control plates were made. CBD and standard antibiotics were serially diluted in Cation-adjusted Mueller Hinton Broth (CaMHB; BD, Cat. No. 212322) two-fold across the wells of polystyrene (PS) 96-well plates (Corning; Cat. No. 3370), plated in duplicate.
The tested bacteria was Staphylococcus aureus ATCC 43300 MRSA (ID GP_020:02).
Charcoal plate PS 96-well plates: 50 μL of sterile activated charcoal suspension (25 mg/ml) were added into row A. 90 μL of 0.9% sterile saline were added to subsequent rows.
Bacteria (Table 2.6) was cultured in CaMHB at 37° C. overnight, then diluted 40-fold and incubated at 37° C. for a further 2-3 h. The resultant mid-log phase cultures were diluted in CaMHB and added to each well of the control and time kill 96-well plates to give a final cell density of 5×10^5 CFU/mL, and a final compound concentration range of 0.03-64 μg/mL. The plates were covered and incubated at 37° C. for 24 h.
At selected time-points (0, 1, 2, 3, 4, 6 and 24 h), 50 μL of culture per-well was transferred from the time kill plate into the first row of charcoal plate (containing the charcoal suspension) to neutralise the compound. After mixing well, 10 μL were transferred from row A to row B to give a 1:10 dilution, this step was repeated until 1:10'000 (row E). […]
MICs and the time kill results were determined visually at 24 hr incubation. […]

C=C(C)C1CCC(C)=CC1c1c(O)cc(CCCCC)cc1O (stereo not drawn) [Cannabidiol, 2-[3-methyl-6-(1-methylethenyl)-2-cyclohexen-1-yl]-5-pentyl-1,3-benzenediol]
MIC ([1]; 216 h, read-out: measured MIC on Day 9): 1 µg/mL (≈ 3.18 µM)
MIC ([1]; 312 h, read-out: MIC of replicate 1 at day 13): > 7 µg/mL
MIC ([1]; 432 h, read-out: MIC of replicate 1 by day 18): > 128 µg/mL
MIC ([1]; 480 h, read-out: MIC through the 20 days of assay): 2 to 4 µg/mL (≈ 6.36 to 12.7 µM)
MIC ([1]; read-out: MIC of replicates 2 and 8 on Days 20 and 21): 6 to 16 µg/mL
MIC of replicate 1 before the increase ([1]; replicate 1): 3.5 µg/mL
MIC ([2]; CaMHB, 24 hr, read-out: CBD control MIC of the day): 2 µg/mL
MIC ([2]; read-out: previous MIC data): 1 to 2 µg/mL (≈ 3.18 to 6.36 µM)
treatment time after which bactericidal ([2]; concentrations over or equal to the MIC value): 3 h

— patent publication US20220296535A1, “Antibacterial Dosage Regime Using Cannabinoids” (Botanix Pharmaceuticals Limited, priority 2019, published 2022)
